In US20130123364A1 (priority 2011, published 2013):
“Also recorded” adds a separate entry of the source.

Test system: lung alveoli of mice damaged by toxic tobacco smoke exposure
Assay: Mouse model of intoxication by chronic inhalation of tobacco smoke, L-NIL in drinking water
Format: in vivo
Protocol: The regeneration and healing of the lung alveoli by L-NIL is shown in a mouse model of intoxication by chronic inhalation of tobacco smoke. In this model, mice are exposed to a stream of tobacco smoke in a concentration of 140 mg/m^3 for 6 h per day, 5 days a week over a period of up to 8 month.
The structural and functional pulmonary changes due to toxic smoke exposure were quantified with techniques suitable for this purpose. To assess the degree of alveolar damage, the mean linear intercept, alveolar septal wall thickness and the air space volume was quantified.
Parameters for the extent of vascular remodeling comprise the measurement of vascular wall thickness, staining for alpha-smooth muscle actin and von-Willebrand factor as well as the mean cross-sectional area of the vessels.
Functional measurements include the quantification of the lung function in spontaneously breathing as well as artificially ventilated mice with respect to airway resistance, lung compliance and volume flow. To evaluate functional changes of the vessels, lungs are investigated in an isolated perfused and ventilated experimental set-up, and pulmonary vascular resistance and reactivity are measured. The vascular reactivity is determined by quantifying the extent of vasoconstriction after addition of phenylephrine and can be deduced from dose/effect curves.
In a second experiment, L-NIL was administered orally via drinking water in a concentration of 600 μg/ml for a period for 3 months to treat mice with alveolar damage/destruction as a result of 8 months of toxic smoke exposure.

[1] = curative: oral L-NIL in drinking water 600 μg/ml for 3 months after 8 months of toxic smoke exposure

[H]/N=C(/C)NCCCC[C@H](N)C(=O)O [L-NIL, N^6-(1-iminoethyl)-L-lysine]
Proliferation, PCNA-positive cells in lung sections (FIGS. 5A to 5D) (L-NIL for 3 month after lung exposure to toxic smoke for 8 months): induction of proliferation
Elastic fibers network, elastin-stained lungs (FIGS. 3A to 3D) (L-NIL treatment after destruction by toxic tobacco smoke exposure): regeneration of the elastic fibers network
Total number of alveoli assessed by quantitative stereology (FIG. 2) (L-NIL treatment after toxic tobacco smoke exposure): regeneration of alveoli
Lung function [1]: lung function improvement
Regeneration of alveolar lung structure [1]: regeneration of the damaged or destroyed lung alveoli; also recorded: complete regeneration of the alveolar lung structure
Protection against alveolar damage/destruction (alveolar morphometry and lung functional measurements) (preventive: oral L-NIL in drinking water 600 μg/ml in parallel to smoke exposure over 8 months): complete protection against alveolar damage/destruction
